Results taken from patent US11692164B2, “Antibiotic-free compositions for the prevention or control of coccidiosis” (Huvepharma Inc., priority 2017, dated 2023).
Where two headings read alike, the source gives them in different places.

What was measured:
E. maxima oocysts [1] = assay: Effect of disinfectants at minimal inhibitory concentration on E. maxima oocyst viability; assay type: cell-based, Eimeria maxima
Method: (§1) In this example, additional disinfectant compounds were tested for their ability to inhibit microbial growth in Eimeria oocyst samples as compared to formalin. E. maxima oocysts were spiked with B. subtilis and P. chrysogenum, and the minimal inhibitory concentrations of several disinfectants were determined. The disinfectants were then added to E. maxima oocysts and the oocysts were stored at 2-7° C. for 6 months. The oocysts were assayed for viability and the decrease in viability due to the disinfectant was calculated by comparison to the same lot of oocysts stored in 0.5×PBS only. Exemplary results are summarized below in Table 5.

[2] = system: B. subtilis and P. chrysogenum; assay: Minimal inhibitory concentration of disinfectants in E. maxima oocysts spiked with B. subtilis and P. chrysogenum; assay type: cell-based, Bacillus subtilis and Penicillium chrysogenum
Method: as §1

[3] = system: Vaccine Serial (E. acervulina, E. maxima and E. tenella oocysts); settings: storage at 2-7° C.
Eimeria maxima oocysts = settings: 0.675% formalin; stored 2 weeks at 2-7° C.; compared to same lot of oocysts stored with 0% formalin
E. maxima oocysts [4] = settings: storage at 2-7° C.
Method: (§2) The effect of formalin on oocyst viability was investigated using oocyst lots of each Eimeria species (E. acervulina, E. maxima and E. tenella) and on vaccine. Viability was determined initially prior to the addition of formalin, and then after 1 year of storage at 2-7° C.

E. tenella oocysts = settings: storage at 2-7° C.
Method: as §2

E. acervulina oocysts = settings: storage at 2-7° C.
Method: as §2

[5] = system: Eimeria acervulina oocysts; settings: 0.1% formalin; stored 4 months at 2-7° C.; compared to same lot of oocysts stored with 0% formalin

Structure (SMILES)	Decrease in Viability (E. maxima oocysts [1]; disinfectant at minimal inhibitory concentration, 6 months of storage at 2-7 C., compared to same lot stored with 0% disinfectant (0.5×PBS only)) [%]	Minimal Inhibitory Concentration [2] [%]	% Viable Oocysts after Storage for 12 Months, Vaccine Serial 12 mo ([3]; formalin concentration 0.0028) [%]	% Viable Oocysts after Storage for 12 Months, Vaccine Serial 12 mo ([3]; formalin concentration 0.0071) [%]	Decrease in Viability (Eimeria maxima oocysts) [%]	% Viable Oocysts after Storage for 12 Months, E. maxima 12 mo (E. maxima oocysts [4]; formalin concentration 0.010) [%]	% Viable Oocysts after Storage for 12 Months, E. maxima 12 mo (E. maxima oocysts [4]; formalin concentration 0.025) [%]	% Viable Oocysts after Storage for 12 Months, E. tenella 12 mo (E. tenella oocysts; formalin concentration 0.010) [%]	% Viable Oocysts after Storage for 12 Months, E. tenella 12 mo (E. tenella oocysts; formalin concentration 0.025) [%]	% Viable Oocysts after Storage for 12 Months, E. acervulina 12 mo (E. acervulina oocysts; formalin concentration 0.010) [%]	% Viable Oocysts after Storage for 12 Months, E. acervulina 12 mo (E. acervulina oocysts; formalin concentration 0.025) [%]	Decrease in Viability [5] [%]	Decrease in Viability (E. maxima oocysts [1]) [%]
CC(C)=CCCC(C)=CC=O [Citral]	24	0.0125	–	–	–	–	–	–	–	–	–	–	–
C=O [Formalin, formaldehyde]	–	–	83	84	49	47	41	95	86	59	27	37	–
Cc1ccc(C(C)C)c(O)c1 [Thymol]	–	0.0063	–	–	–	–	–	–	–	–	–	–	15
